Assays:
EZH2 enzyme complex = EZH2 enzyme complex (Homo sapiens (Human), UniProt Q15910); test: Test on EZH2 inhibitory activity (TR-FRET); assay type: biochemical; conditions: EZH2 enzyme complex 25 ng/uL, histone H3 peptide 4 uM, SAM 2 uM, 300 min; read-out: IC50 of EZH2 inhibition
Procedure: • EZH2 enzyme complex: 25 ng/uL • Histone H3 peptide substrate: 4 uM • SAM: 2 uM • Reaction time: 300 min Procedures • 1. Each compound disclosed herein was diluted with 1×HMT buffer and transferred to a 384-well assay plate at 3 uL per well; • 2. The EZH2 enzyme solution was prepared with 1×HMT buffer and transferred to the 384-well assay plate at 2 uL per well; • 3. The above assay plate was incubated for 30 min; • 4. A mixture solution of SAM and histone H3 peptide substrate at 2-fold concentration was prepared with 4×HMT buffer; • 5. 5 uL of the mixture solution of SAM and substrate was added to each well of the assay plate to react at room temperature, and the assay plate was sealed with plastic; • 6. After incubation for 5 h, 10 uL of TR-FRET detection buffer containing Tb-labeled antibody and dye-labeled receptor was added to each well of the assay plate; • 7. After incubation for 1 h at room temperature, the assay plate was detected; • 8.

WSU-DLCL2 = test: Methylated lysine of histone-H3 (H3K27Me3) detection by ELISA, WSU-DLCL2 cells; assay type: cell-based; conditions: Homo sapiens, WSUDLCL2, 168 h; WSU-DLCL2, 7 days treatment, H3K27Me3 normalized to total histone-3; read-out: IC50 of cell methylation, WSU-DLCL2
Procedure: (§1) The operations for adherent cells and suspension cells cultured in 96-well plates were slightly different after they had been treated with compound (4-fold dilution 20 uM-0.009 nM, 3 duplicate wells) for 7 days, and the operations are summarized as follows: For adherent cells, after discarding the medium, 75 uL of 1-fold hypotonic lysis buffer (10 mM Tris-HCl, pH 7.5, containing halt protease inhibitor and PMSF with a final concentration of 1 mM) was added; the plate was frozen at −80° C. for at least 1 h or overnight; once the plate was taken away from the −80° C. environment, 120 uL (to a final volume of about 195 uL) of 1-fold hypotonic lysis buffer (containing protease inhibitor) was added, and the plate was thawed at room temperature and shaken for 2 min for mixing; and 8 uL (to a final volume of about 203 uL) of 2.5 M NaCl was added to each well to a final NaCl concentration of 100 mM and then the plate was shaken for an additional 2 min for mixing.
(§2) For suspension cells (final volume of medium was 100 uL/well), 25 uL of 5-fold hypotonic lysis buffer (50 mM Tris-HCl, pH 7.5, containing halt protease inhibitor and PMSF with a final concentration of 1 mM) was added, and the plate was frozen at −80° C. for at least 1 h or overnight. Once the plate was taken away from the −80° C. environment, 20 uL of 0.625 M NaCl was added to each well to a final NaCl concentration of about 100 mM, and the mixture was mixed well.
(§3) 75 uL or 100 uL of sample (with duplicate wells provided) was added to two 96-well ELISA plates (ThermoFisher Scientific; Immulon 4HBX 3885) and the plates were coated with total protein lysate and incubated overnight at 4° C. 50 uL of lysate was retained for protein quantitation if necessary. The sealing of the plates must be ensured. The plates were washed twice with 300 uL of 1×PBST (PBS containing 0.05% Tween 20) per well. Each well was blocked with 300 uL of dilution (PBS+2% BSA+0.05% Tween 20), incubated for 2 h at room temperature, and washed twice with 1×PBST. Primary antibodies were diluted with a dilution solution containing 1% BSA+0.05% Tween 20. 75-100 uL of anti-H3K27Me3 antibody (CST; 9733; 50% glycerol stock, 1:1,000) or anti-total histone-3 antibody (Abcam; ab1791; 50% glycerol stock, 1:10,000) was added to each well. The plates were incubated for 90 min at room temperature or incubated overnight at 4° C. The plates were washed three times with 1×PBST. 75-100 uL of anti-Rb-IgG-HRP secondary antibody (Cell Signaling Technology; 7074) was added per well, 1:2000 diluted secondary antibody for anti-H3K 27Me3 plate and 1:6000 diluted secondary antibody for anti-histone total histone-3 plate. The plates were incubated at room temperature for 90 min. The plate assayed with anti-histone-3 antibody was used to normalize the data for the corresponding plate assayed with anti-H3K 27me3. The plates must be washed at least three times with 1×PBST after primary or secondary antibody incubation. The plates were assayed by adding 75-100 uL of 3,3′,5,5′-tetramethylbenzidine substrate (CST or ThermoFisher Scientific; TMBS) per well and incubated away from light for 30 min at 37° C. The reaction was terminated by adding 100 uL of 0.5 M H2SO4 per well. The absorbance was read at 450 nm. Curve fitting was performed using Graph Pad program.

Pfeiffer = test: Methylated lysine of histone-H3 (H3K27Me3) detection by ELISA, Pfeiffer cells; assay type: cell-based, human; conditions: Homo sapiens, 168 h, 7 days treatment, H3K27Me3 normalized to total histone-3, read-out: IC50 of cell methylation, Pfeiffer
Procedure: as §1, §2, §3

Sequence of EZH2 enzyme complex (Q15910 whole entry): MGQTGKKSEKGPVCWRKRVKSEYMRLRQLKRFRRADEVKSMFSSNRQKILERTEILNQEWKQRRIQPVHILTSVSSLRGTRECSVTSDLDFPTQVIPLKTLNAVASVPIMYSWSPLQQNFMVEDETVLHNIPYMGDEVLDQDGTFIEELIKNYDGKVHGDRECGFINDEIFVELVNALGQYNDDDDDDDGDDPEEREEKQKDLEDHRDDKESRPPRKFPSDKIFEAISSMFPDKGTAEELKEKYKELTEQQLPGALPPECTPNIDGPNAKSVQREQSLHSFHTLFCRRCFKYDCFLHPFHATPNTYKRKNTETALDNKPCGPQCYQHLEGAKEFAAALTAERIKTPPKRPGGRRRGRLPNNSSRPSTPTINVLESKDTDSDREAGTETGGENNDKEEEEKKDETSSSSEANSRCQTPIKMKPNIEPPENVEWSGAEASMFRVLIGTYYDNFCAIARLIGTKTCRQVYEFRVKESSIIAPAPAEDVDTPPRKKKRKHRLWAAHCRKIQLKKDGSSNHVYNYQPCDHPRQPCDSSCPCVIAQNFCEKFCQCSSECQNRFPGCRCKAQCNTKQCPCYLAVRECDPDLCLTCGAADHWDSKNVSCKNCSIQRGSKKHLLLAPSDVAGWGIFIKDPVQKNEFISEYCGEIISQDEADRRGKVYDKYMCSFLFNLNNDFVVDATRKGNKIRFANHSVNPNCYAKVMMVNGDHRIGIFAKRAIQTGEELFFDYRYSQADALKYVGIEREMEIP
Sequence of EZH2 enzyme complex (O75530 whole entry partner): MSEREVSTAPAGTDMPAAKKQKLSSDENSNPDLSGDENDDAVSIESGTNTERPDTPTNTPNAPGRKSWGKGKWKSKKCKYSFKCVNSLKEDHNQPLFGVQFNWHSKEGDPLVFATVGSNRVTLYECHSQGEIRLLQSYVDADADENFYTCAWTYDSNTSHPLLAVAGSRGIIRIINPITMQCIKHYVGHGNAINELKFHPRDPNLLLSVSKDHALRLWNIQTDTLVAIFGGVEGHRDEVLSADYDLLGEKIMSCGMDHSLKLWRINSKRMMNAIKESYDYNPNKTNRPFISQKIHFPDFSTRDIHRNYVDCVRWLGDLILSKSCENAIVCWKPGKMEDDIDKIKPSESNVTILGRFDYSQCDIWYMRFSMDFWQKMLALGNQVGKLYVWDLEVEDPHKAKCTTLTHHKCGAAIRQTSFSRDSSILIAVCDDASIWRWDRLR
Sequence of EZH2 enzyme complex (Q15022 whole entry partner): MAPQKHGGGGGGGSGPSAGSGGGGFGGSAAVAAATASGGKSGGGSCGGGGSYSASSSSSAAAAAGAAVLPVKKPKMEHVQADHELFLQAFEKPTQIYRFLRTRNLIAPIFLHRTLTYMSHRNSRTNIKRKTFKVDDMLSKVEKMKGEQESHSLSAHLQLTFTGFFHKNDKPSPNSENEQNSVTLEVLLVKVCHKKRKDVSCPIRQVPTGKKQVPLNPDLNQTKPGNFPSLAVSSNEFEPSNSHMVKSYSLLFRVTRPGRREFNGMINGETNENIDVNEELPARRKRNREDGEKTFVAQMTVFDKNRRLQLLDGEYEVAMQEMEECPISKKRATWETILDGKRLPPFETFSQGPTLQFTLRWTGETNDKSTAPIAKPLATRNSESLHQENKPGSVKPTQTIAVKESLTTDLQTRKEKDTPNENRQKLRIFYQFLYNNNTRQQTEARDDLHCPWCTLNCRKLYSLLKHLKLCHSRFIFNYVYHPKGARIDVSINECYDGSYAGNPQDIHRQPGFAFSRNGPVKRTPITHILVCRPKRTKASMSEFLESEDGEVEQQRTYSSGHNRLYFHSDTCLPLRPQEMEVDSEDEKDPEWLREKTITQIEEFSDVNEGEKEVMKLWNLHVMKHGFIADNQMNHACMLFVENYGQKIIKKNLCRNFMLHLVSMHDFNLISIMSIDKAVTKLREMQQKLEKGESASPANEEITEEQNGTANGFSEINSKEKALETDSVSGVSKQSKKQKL

Row | SMILES | IC50 (EZH2 enzyme complex) | IC50 (WSU-DLCL2) | IC50 (Pfeiffer)
1 | CCN(c1cc(OC2CCC2)cc(C(=O)NCc2c(C)cc(C)[nH]c2=O)c1C)C1CCOCC1 [Example 1, 5-cyclobutoxy-N-((4,6-dimethyl-2-oxo-1,2-dihydropyridin-3-yl)methyl)-3-(ethyl(tetrahydro-2H-pyran-4-yl)amino)-2-methylbenzamide] | 10 to 100 nM | 50 to 500 nM | < 50 nM
2 | CCN(c1cc(OC2CC(C)C2)cc(C(=O)NCc2c(C)cc(C)[nH]c2=O)c1C)C1CCOCC1 (stereo not shown) [Example 2, N-((4,6-dimethyl-2-oxo-1,2-dihydropyridin-3-yl)methyl)-3-(ethyl(tetrahydro-2H-pyran-4-yl)amino)-2-methyl-5-(3-methylcyclobutoxy)benzamide] | 10 to 100 nM | 500 to 1000 nM | 50 to 500 nM
3 | CCN(c1cc(OC2CC(F)(F)C2)cc(C(=O)NCc2c(C)cc(C)[nH]c2=O)c1C)C1CCOCC1 [Example 3, 5-(3,3-difluorocyclobutoxy)-N-((4,6-dimethyl-2-oxo-1,2-dihydropyridin-3-yl)methyl)-3-(ethyl(tetrahydro-2H-pyran-4-yl)amino)-2-methylbenzamide] | 10 to 100 nM | 50 to 500 nM | < 50 nM
4 | CCN(c1cc(O[C@H]2C[C@@H](CN3CCOCC3)C2)cc(C(=O)NCc2c(C)cc(C)[nH]c2=O)c1C)C1CCOCC1 [Example 6, N-((4,6-dimethyl-2-oxo-1,2-dihydropyridin-3-yl)methyl)-3-(ethyl(tetrahydro-2H-pyran-4-yl)amino)-2-methyl-5-(cis-3-(morpholinylmethyl)cyclobutoxy)benzamide] | 10 to 100 nM | 50 to 500 nM | < 50 nM
5 | CCN(c1cc(O[C@H]2C[C@H](CN3CCOCC3)C2)cc(C(=O)NCc2c(C)cc(C)[nH]c2=O)c1C)C1CCOCC1 [Example 7, N-((4,6-dimethyl-2-oxo-1,2-dihydropyridin-3-yl)methyl)-3-(ethyl(tetrahydro-2H-pyran-4-yl)amino)-2-methyl-5-(trans-3-(morpholinylmethyl)cyclobutoxy)benzamide] | 10 to 100 nM | 50 to 500 nM | < 50 nM
6 | CCN(c1cc(SC2CCC2)cc(C(=O)NCc2c(C)cc(C)[nH]c2=O)c1C)C1CCOCC1 [Example 8, 5-(cyclobutylthio)-N-((4,6-dimethyl-2-oxo-1,2-dihydropyridin-3-yl)methyl)-3-(ethyl(tetrahydro-2H-pyran-4-yl)amino)-2-methylbenzamide] | 10 to 100 nM | > 1000 nM | 50 to 500 nM
7 | CCN(c1cc([S+]([O-])C2CCC2)cc(C(=O)NCc2c(C)cc(C)[nH]c2=O)c1C)C1CCOCC1 (stereo not shown) [Example 9, 5-(cyclobutylsulfinyl)-N-((4,6-dimethyl-2-oxo-1,2-dihydropyridin-3-yl)methyl)-3-(ethyl(tetrahydro-2H-pyran-4-yl)amino)-2-methylbenzamide] | 100 to 1000 nM | 500 to 1000 nM | 500 to 1000 nM
8 | CCN(c1cc(S(=O)(=O)C2CCC2)cc(C(=O)NCc2c(C)cc(C)[nH]c2=O)c1C)C1CCOCC1 [Example 10, 5-(cyclobutylsulfonyl)-N-((4,6-dimethyl-2-oxo-1,2-dihydropyridin-3-yl)methyl)-3-(ethyl(tetrahydro-2H-pyran-4-yl)amino)-2-methylbenzamide] | 100 to 1000 nM | > 1000 nM | 500 to 1000 nM
9 | CCN(c1cc(OC2CCC2)cc(C(=O)NCc2c(C)cc(C)[nH]c2=O)c1Cl)C1CCOCC1 [Example 11, 2-chloro-5-cyclobutoxy-N-((4,6-dimethyl-2-oxo-1,2-dihydropyridin-3-yl)methyl)-3-(ethyl(tetrahydro-2H-pyran-4-yl)amino) benzamide] | 10 to 100 nM | 50 to 500 nM | 50 to 500 nM
10 | CCN(c1cc(OC2CC(C)(C)C2)cc(C(=O)NCc2c(C)cc(C)[nH]c2=O)c1C)C1CCOCC1 [Example 12, N-((4,6-dimethyl-2-oxo-1,2-dihydropyridin-3-yl)methyl)-5-(3,3-dimethylcyclobutoxy)-3-(ethyl(tetrahydro-2H-pyran-4-yl)amino)-2-methylbenzamide] | 10 to 100 nM | > 1000 nM | 50 to 500 nM
11 | CCN(c1cc(OC2CC(C(=O)N3CCOCC3)C2)cc(C(=O)NCc2c(C)cc(C)[nH]c2=O)c1C)C1CCOCC1 (stereo not shown) [Example 13, N-((4,6-dimethyl-2-oxo-1,2-dihydropyridin-3-yl)methyl)-3-(ethyl(tetrahydro-2H-pyran-4-yl)amino)-2-methyl-5-(3-(morpholine-4-carbonyl)cyclobutoxy)benzamide] | 10 to 100 nM | 50 to 500 nM | < 50 nM
12 | CCN(c1cc(C2CC2)cc(C(=O)NCc2c(C)cc(C)[nH]c2=O)c1C)C1CCOCC1 [Example 14, 5-cyclopropyl-N-((4,6-dimethyl-2-oxo-1,2-dihydropyridin-3-yl)methyl)-3-(ethyl(tetrahydro-2H-pyran-4-yl)amino)-2-methylbenzamide] |  | 50 to 500 nM | < 50 nM
13 | CCN(c1cc(O[C@H]2C[C@@H](N3C[C@@H](C)O[C@@H](C)C3)C2)cc(C(=O)NCc2c(C)cc(C)[nH]c2=O)c1C)[C@H]1C[C@@H](C)O[C@@H](C)C1 [Example 33] | 100 to 1000 nM |  | 50 to 500 nM
14 | CCN(c1cc(O[C@H]2C[C@H](N3C[C@@H](C)O[C@@H](C)C3)C2)cc(C(=O)NCc2c(C)cc(C)[nH]c2=O)c1C)[C@H]1CC[C@H](N(C)CCOC)CC1 [Example 52, N-((4,6-dimethyl-2-oxo-1,2-dihydropyridin-3-yl)methyl)-5-(trans-3-(cis-2,6-dimethylmorpholinyl)cyclobutoxy)-3-(ethyl(trans-4-((2-methoxyethyl)(methyl)amino)cyclohexyl)amino)-2-methylbenzamide] | 10 to 100 nM | 500 to 1000 nM | 
15 | CCN(c1cc(O[C@H]2C[C@H](N3CC4CC(C3)O4)C2)cc(C(=O)NCc2c(C)cc(C)[nH]c2=O)c1Cl)C1CCOCC1 [Example 55] | 10 to 100 nM | 50 to 500 nM | 
16 | CCN(c1cc(C2CC2CN2CCN(C(=O)OC)CC2)cc(C(=O)NCc2c(C)cc(C)[nH]c2=O)c1C)C1CCOCC1 (stereo not shown) [Example 80, methyl 4-((2-(3-(((4,6-dimethyl-2-oxo-1,2-dihydropyridin-3-yl)methyl)carbamoyl)-5-(ethyl(tetrahydro-2H-pyran-4-yl)amino)-4-methylphenyl)cyclopropyl)methyl)piperazine-1-carboxylate] | 10 to 100 nM | < 50 nM | 
17 | CCN(c1cc(C2CC2CN2CCOCC2)cc(C(=O)NCc2c(C)cc(C)[nH]c2=O)c1C)[C@H]1CC[C@H](N(C)CCOC)CC1 (stereo partly drawn) [Example 82, N-((4,6-dimethyl-2-oxo-1,2-dihydropyridin-3-yl)methyl)-3-(ethyl(trans-4-((2-methoxyethyl)(methyl)amino)cyclohexyl)amino)-2-methyl-5-(2-(morpholinylmethyl)cyclopropyl)benzamide] | 10 to 100 nM | 50 to 500 nM | 
18 | CCN(c1cc(C2CC2CN2CCNCC2)cc(C(=O)NCc2c(C)cc(C)[nH]c2=O)c1Cl)C1CCOCC1 (stereo not shown) [Example 83, 2-chloro-N-((4,6-dimethyl-2-oxo-1,2-dihydropyridin-3-yl)methyl)-3-(ethyl(tetrahydro-2H-pyran-4-yl)amino)-5-(2-(piperazin-1-ylmethyl)cyclopropyl)benzamide] | 10 to 100 nM | > 1000 nM | 
19 | CCN(c1cc(C2CC2CN2C[C@@H](C)O[C@@H](C)C2)cc(C(=O)NCc2c(C)cc(C)[nH]c2=O)c1Cl)C1CCOCC1 (stereo partly drawn) [Example 85, 2-chloro-N-((4,6-dimethyl-2-oxo-1,2-dihydropyridin-3-yl)methyl)-5-(2-(((2S,6R)-2,6-dimethylmorpholinyl)methyl)cyclopropyl)-3-(ethyl(tetrahydro-2H-pyran-4-yl)amino)benzamide] | 100 to 1000 nM | 500 to 1000 nM | 

Reference: patent US12390472B2 (SUZHOU SINOVENT PHARMACEUTICALS CO., LTD., priority 2018, dated 2025)
